Test results from ChEMBL document CHEMBL4229463, “Regio- and stereospecific synthesis of rac-carbasugar-based cyclohexane pentols; Investigations of their α- and β-glucosidase inhibitions” (Bioorg Med Chem, 2018).
pIC50: −log10 of the molar value.

Legend:
Saccharomyces cerevisiae [1] = test: Inhibition of Saccharomyces cerevisiae alpha-glucosidase at 10 uM using PNPG as substrate after 3 mins by UV-vis spectrophotometric method relative to control
Saccharomyces cerevisiae [2] = test: Inhibition of Saccharomyces cerevisiae alpha-glucosidase at 20 uM using PNPG as substrate after 3 mins by UV-vis spectrophotometric method relative to control
Saccharomyces cerevisiae [3] = test: Inhibition of Saccharomyces cerevisiae alpha-glucosidase at 40 uM using PNPG as substrate after 3 mins by UV-vis spectrophotometric method relative to control
Saccharomyces cerevisiae [4] = test: Inhibition of Saccharomyces cerevisiae alpha-glucosidase at 60 uM using PNPG as substrate after 3 mins by UV-vis spectrophotometric method relative to control
Saccharomyces cerevisiae [5] = test: Inhibition of Saccharomyces cerevisiae alpha-glucosidase at 80 uM using PNPG as substrate after 3 mins by UV-vis spectrophotometric method relative to control
Saccharomyces cerevisiae [6] = test: Inhibition of Saccharomyces cerevisiae alpha-glucosidase at 120 uM using PNPG as substrate after 3 mins by UV-vis spectrophotometric method relative to control
[7] = Inhibition of Saccharomyces cerevisiae alpha-glucosidase using PNPG as substrate after 3 mins by UV-vis spectrophotometric method
Prunus dulcis [8] = test: Inhibition of almond beta-glucosidase at 10 uM using PNPG as substrate after 3 mins by UV-vis spectrophotometric method relative to control
Prunus dulcis [9] = test: Inhibition of almond beta-glucosidase at 20 uM using PNPG as substrate after 3 mins by UV-vis spectrophotometric method relative to control
Prunus dulcis [10] = test: Inhibition of almond beta-glucosidase at 40 uM using PNPG as substrate after 3 mins by UV-vis spectrophotometric method relative to control
Prunus dulcis [11] = test: Inhibition of almond beta-glucosidase at 60 uM using PNPG as substrate after 3 mins by UV-vis spectrophotometric method relative to control
Prunus dulcis [12] = test: Inhibition of almond beta-glucosidase at 80 uM using PNPG as substrate after 3 mins by UV-vis spectrophotometric method relative to control
Prunus dulcis [13] = test: Inhibition of almond beta-glucosidase at 120 uM using PNPG as substrate after 3 mins by UV-vis spectrophotometric method relative to control
[14] = Inhibition of almond beta-glucosidase using PNPG as substrate after 3 mins by UV-vis spectrophotometric method; set-up: species or system Prunus dulcis

Row | inhibition (Saccharomyces cerevisiae [1]) | inhibition (Saccharomyces cerevisiae [2]) | inhibition (Saccharomyces cerevisiae [3]) | inhibition (Saccharomyces cerevisiae [4]) | inhibition (Saccharomyces cerevisiae [5]) | inhibition (Saccharomyces cerevisiae [6]) | pIC50 [7] | inhibition (Prunus dulcis [8]) | inhibition (Prunus dulcis [9]) | inhibition (Prunus dulcis [10]) | inhibition (Prunus dulcis [11]) | inhibition (Prunus dulcis [12]) | inhibition (Prunus dulcis [13]) | pIC50 [14] | Compound
1 | 2.13% | 3.6% | 7.83% | 8.5% | 10.8% | 16% |  | 2.24% | 5.97% | 10.9% | 15.4% | 17.7% | 17.4% |  | OC[C@H]1C[C@H](O)[C@@H](O)[C@H](O)[C@H]1CO (racemic)
2 | 3.42% | 5.59% | 7.93% | 8.21% | 9.5% | 16.3% |  |  |  | 2% | 4.29% | 12.9% | 23% |  | OC[C@H]1C[C@H](O)[C@H](O)[C@@H](O)[C@H]1CO (racemic)
3 | 22.8% | 30% | 33% | 46% | 60% | 78% | 4.28 | 17% | 25% | 40% | 52% | 58% | 68% | 4.25 | C[C@H]1O[C@H](O[C@H]2[C@H](O)[C@@H](O)[C@@H](O[C@H]3[C@H](O)[C@@H](O)C(O)O[C@@H]3CO)O[C@@H]2CO)[C@H](O)[C@@H](O)[C@@H]1N[C@H]1C=C(CO)[C@@H](O)[C@H](O)[C@H]1O (some centres undefined) [ACARBOSE]

More lines, now with the values behind:

Row | Compound | inhibition (Saccharomyces cerevisiae [1]) | inhibition (Saccharomyces cerevisiae [2]) | inhibition (Saccharomyces cerevisiae [3]) | inhibition (Saccharomyces cerevisiae [4]) | inhibition (Saccharomyces cerevisiae [5]) | inhibition (Saccharomyces cerevisiae [6]) | pIC50 [7] | inhibition (Prunus dulcis [8]) | inhibition (Prunus dulcis [9]) | inhibition (Prunus dulcis [10]) | inhibition (Prunus dulcis [11]) | inhibition (Prunus dulcis [12]) | inhibition (Prunus dulcis [13]) | pIC50 [14]
4 | OC[C@H]1C[C@H](Cl)[C@@H](O)[C@H](O)[C@H]1CO (racemic) | 12.2% | 13.3% | 15% | 26.1% | 38% | 55% | 3.76 | 1.99% | 5.2% | 19.1% | 20.6% | 24.1% | 32.3% | 
5 | OC[C@H]1C[C@H](O)[C@@H](Cl)[C@H](O)[C@H]1CO (racemic) | 3.98% | 7.9% | 20.4% | 23% | 34.8% | 56.4% | 3.81 | 2.49% | 11.7% | 18.4% | 21.1% | 24.6% | 26.4% | 
6 | OC[C@H]1C[C@@H](O)[C@H](O)[C@@H](O)[C@H]1CO (racemic) | 10.4% | 12.1% | 22.5% | 25.3% | 33.6% | 44.6% |  | 3.74% | 5.22% | 25.1% | 30.8% | 33.8% | 36.8% | 
